Usually IC50 stands for the point on the concentration scale where inhibition reaches its midpoint.

These results are taken from ChEMBL document CHEMBL3045567, “Heterocycles 23: Synthesis, characterization and anticancer activity of new hydrazinoselenazole derivatives” (Med Chem Res, 2013).

A value given as a limit tells only on which side of the number the result lay.

For one experiment, the system named is HepG2. The experiment can be described thus: Cytotoxicity against human HepG2 cells after 72 hrs by XTT assay. It is filed as functional, cell-based. To be noted: HepG2, 72 h. (Tetrazolium dyes change colour on reduction, which living cells bring about.)
In a further experiment the test system is DU-145. The experiment can be described thus: Cytotoxicity against human DU145 cells after 72 hrs by XTT assay. To be noted: DU-145, 72 h. It is filed as functional, cell-based.

Regarding `CC(=O)N(/N=C/c1ccc(Cl)cc1)c1nc(C)c[se]1`, the IC50 came to 59.2 µM in the experiment on HepG2 and 60.6 µM in the experiment with DU-145.

`COc1ccc(/C=N/N(C(C)=O)c2nc(C)c[se]2)cc1`: the IC50 in the experiment with HepG2 and in the experiment on DU-145 was greater than 74.4 µM throughout.

For the compound `NC(=[Se])N/N=C/c1csc(-c2ccccc2)n1`, the IC50 in the experiment with HepG2 was 9.18 µM; in the experiment with DU-145, 6.14 µM.

Take `Cc1c[se]c(NNC(=O)c2ccccc2)n1`: the IC50 in the experiment with HepG2 and in the experiment on DU-145 was greater than 89.2 µM in each case.

Regarding `ClCc1c[se]c(N/N=C/c2ccc(Cl)cc2)n1`, the IC50 in the experiment with HepG2 and with DU-145 was greater than 75.1 µM throughout.

On to `COc1ccc(/C=N/Nc2nc(C)c[se]2)cc1`, for which the IC50 in the experiment on HepG2 is 83.2 µM; in the experiment with DU-145 it was greater than 85 µM.

`NC(=[Se])NNC(=O)c1ccccc1` [BENZOYL-SELENOSEMICARBAZIDE]: the IC50 turned out to be 34.8 µM with HepG2 and 35.1 µM in the experiment on DU-145.

On to `COc1ccc(/C=N/N(C(C)=O)c2nc(-c3ccccc3)c[se]2)cc1`, for which the IC50 in the experiment on HepG2 and in the experiment on DU-145 was greater than 62.8 µM throughout.

For the compound `CC(=O)N(C(=O)c1ccc(Cl)cc1)N(C(C)=O)c1nc(C)c[se]1`, the IC50 with HepG2 and in the experiment with DU-145 was greater than 62.7 µM each time.

Turning to `COc1cccc2c1C(=O)c1c(O)c3c(c(O)c1C2=O)C[C@@](O)(C(=O)CO)C[C@@H]3O[C@H]1C[C@H](N)[C@H](O)[C@H](C)O1` [DOXORUBICIN], the IC50 in the experiment with HepG2 amounted to 4.89 µM; with DU-145 it was 3.27 µM.

For `NC(=[Se])N/N=C/c1ccccc1` [BENZYLIDEN-SELENOSEMICARBAZIDE], the results for the IC50 in the experiment on HepG2 and in the experiment with DU-145 were 39.1 µM and 40.8 µM, respectively.

In the case of `CCOC(=O)c1[se]c(N/N=C/c2ccc(Cl)cc2)nc1C`, the results for the IC50 in the experiment with HepG2 and in the experiment on DU-145 were 52.8 µM and 47.7 µM, respectively.

`CC(=O)N(C(=O)c1ccccc1)N(C(C)=O)c1nc(-c2ccccc2)c[se]1`: the IC50 with HepG2 and with DU-145 was greater than 58.6 µM each time.

In the case of `CC(=O)N(/N=C/c1ccc(Cl)cc1)c1nc(CCl)c[se]1`, the IC50 was greater than 66.7 µM with HepG2 and 64.7 µM with DU-145.

Consider `Cc1c[se]c(N/N=C/c2ccc(Cl)cc2)n1`, for which the IC50 with HepG2 turned out to be 56.5 µM; in the experiment on DU-145, 49.4 µM.

`Clc1ccc(/C=N/Nc2nc(-c3ccccc3)c[se]2)cc1`: the IC50 in the experiment on HepG2 stood at 42.5 µM; with DU-145, 54.2 µM.

Turning to `CC(=O)N(/N=C/c1ccc(Cl)cc1)c1nc(-c2ccccc2)c[se]1`, the IC50 with HepG2 and with DU-145 was greater than 62.1 µM throughout.

In the case of `O=C(NNc1nc(-c2ccccc2)c[se]1)c1ccccc1`, the IC50 in the experiment on HepG2 and in the experiment with DU-145 was greater than 73 µM each time.

With `CC(=O)N(C(=O)c1ccc(Cl)cc1)N(C(C)=O)c1nc(-c2ccccc2)c[se]1`, the IC50 in the experiment with HepG2 and in the experiment with DU-145 was greater than 54.3 µM each time.

For `CC(=O)N(C(=O)c1ccccc1)N(C(C)=O)c1nc(C)c[se]1`, the IC50 in the experiment with HepG2 and with DU-145 was greater than 68.6 µM throughout.

As to `CC(=O)c1[se]c(N/N=C/c2csc(-c3ccccc3)n2)nc1C`, the IC50 came to 61.3 µM with HepG2 and 49.9 µM in the experiment on DU-145.

For the compound `Cc1c[se]c(NNC(=O)c2ccc(Cl)cc2)n1`, the IC50 with HepG2 and in the experiment on DU-145 was greater than 79.5 µM in each case.

With `COc1ccc(/C=N/Nc2nc(-c3ccccc3)c[se]2)cc1`, the half-maximal inhibitory concentration (IC50) was found to be 50.5 µM in the experiment on HepG2 and 50.9 µM with DU-145.

With `O=C(NNc1nc(-c2ccccc2)c[se]1)c1ccc(Cl)cc1`, the IC50 in the experiment on HepG2 is 62.9 µM; in the experiment with DU-145, 65.1 µM.

Take `CC(=O)c1[se]c(N(/N=C/c2csc(-c3ccccc3)n2)C(C)=O)nc1C`: the IC50 worked out at 29.4 µM in the experiment with HepG2 and 31.3 µM with DU-145.

For `NC(=[Se])N/N=C/c1ccc(Cl)cc1`, the figures for the IC50 with HepG2 and in the experiment on DU-145 were 13 µM and 8.63 µM, respectively.

`COc1ccc(/C=N/NC(N)=[Se])cc1`: the IC50 in the experiment on HepG2 is 11.3 µM; in the experiment with DU-145 it was 30.3 µM.

Consider `CCOC(=O)c1[se]c(N(/N=C/c2ccc(Cl)cc2)C(C)=O)nc1C`, for which the IC50 is 55.1 µM with HepG2 and greater than 60.6 µM in the experiment on DU-145.

For `CC(=O)N(/N=C/c1csc(-c2ccccc2)n1)c1nc(CCl)c[se]1`, the concentration for half-maximal inhibition (IC50) came to 19.3 µM in the experiment with HepG2 and 19.6 µM in the experiment on DU-145.

Turning to `NC(=[Se])NNC(=O)c1ccc(Cl)cc1`, the figures for the IC50 with HepG2 and with DU-145 were 10.7 µM and 7.59 µM, respectively.

Consider `ClCc1c[se]c(N/N=C/c2csc(-c3ccccc3)n2)n1`, for which the IC50 in the experiment with HepG2 was 18.8 µM; in the experiment with DU-145, 16.4 µM.
